Laboratory results as given in paper PMC10961359, “Targeting hexokinase 2 for oral cancer therapy: structure-based design and validation of lead compounds” (Frontiers in Pharmacology, 2024).

Experiments:
Format in all cases: cell-based
[1] = tested on: Cal27 cells; assay: 2-NBDG glucose uptake assay (flow cytometry), Cal27; conditions: Cal27, 10 μM and 30 μM, 72 h, vs DMSO control
Procedure: FaDu and Cal27 cells were treated with test compounds (0.2 million cells per treatment) and were incubated for 1 h with 100 μM of 2-NBDG (Invitrogen, N13195), in glucose free medium, washed with ice-cold PBS, and re-suspended in 500 μL of PBS and maintained on ice to perform flow cytometric analyses within 30 min. The mean fluorescent intensity (MFI) readout reflects the amount of fluorescent glucose analog taken up by the cells, providing insight into their glucose uptake capacity. The percent (%) cell population positive for glucose uptake (shown with a right shift of the histogram peaks) were also plotted for both the cell lines. For MMP analysis, cells were incubated with 200 nM of TMRE (Invitrogen, T669) for 30 min. For each measurement, data was collected for 10,000 events using a BD FACS Aria III (Becton Dickinson, San Jose, CA) instrument.
2-[N-(7-Nitrobenz-2-oxa-1,3-diaxol-4-yl) amino]-2-deoxyglucose (2-NBDG) uptake into cells happens via glucose transporters and post uptake 2-NBDG gets phosphorylated by hexokinases. Since cancer cells represent higher glycolytic activity, the inhibition of HK2 activity in cancer cells is actively reflected in the inhibition of 2-NBDG uptake ([Hung et al., 2022]; [Li et al., 2022]). […] In this assay, the MFI of intracellular 2-NBDG serves as a quantitative measure of cellular glucose uptake. […] This finding is further supported by the increased % population of 2-NBDG positive cells in Cal27 cells compared to FaDu cells (Figure 3).

[2] = tested on: FaDu cells; assay: Annexin V FITC / propidium iodide apoptosis assay, FaDu; conditions: 10 and 30 μM, 72 h
Procedure: FaDu and Cal27 cells were treated with the test compounds (0.5 million cells per treatment) for 72 h, and harvested for cell cycle analysis (Cat# BD340242) and apoptosis analysis (Cat# BD556547) by flow cytometry according to manufacturer’s instructions.
To determine the effect of HK2 inhibition in the progression of the cell cycle, flow cytometric analysis of compound-treated FaDu and Cal27 cells was carried out 72 h post-treatment. Cell cycle analysis is carried out to quantify the DNA content and estimate the percentages of the cell population in different cell cycle phases via propidium iodide staining. […] To determine the apoptosis-inducing activity of HK2 inhibitors, 10 and 30 μM of compounds H2 and H10 treated FaDu and Cal27 cells were stained with annexin V conjugated with FITC, followed by propidium iodide staining.

[3] = tested on: LC3B in Cal27 cells; assay: Immunofluorescence LC3B / MitoTracker Red colocalization (mitophagy); conditions: Cal27, 4 h
Procedure: Cal27 cells were treated with respective compounds for 4h, and washed with PBS and fixed with 100% methanol. The non-specific antibody binding was blocked by incubating with 5% goat serum in 0.3% Triton X-100 for 1 h. The diluted primary antibody (LC3B mAb, CST Cat# 3868) and MitoTracker Red (CST, Cat# 9082) were applied and samples were incubated overnight at 4°C followed by addition of fluorescently labelled secondary antibody for 2 h at room temperature and visualized using Leica DMi8 laser scanning confocal microscope using the Leica LAS X software. To analyze the extent of mitophagy in the captured images, the colocalization area of green (LC3B) and red (Mito-Red) portions were quantified using the LAS X software. The LC3B MFI was also quantified and represented in gray values.
Mitochondria utilize the oxidizable substrates to produce a membrane potential as the proton gradient ([Sivandzade et al., 2019]). Loss in mitochondrial membrane potential (MMP) is a direct measurement of mitochondrial stress and may cause the release of apoptotic factors leading to cell death ([Zhang et al., 2017]). […] To determine the change in MMP post-treatment with HK2 inhibitors, the cells were treated with 200 nM of TMRE (tetramethyl rhodamine ethyl ester, a cell-permeant cationic dye readily sequestered by active mitochondria) and flow cytometric analyses of TMRE uptake was carried out. […]

COc1ccc(CNC(=O)c2nc3ccccc3s2)cc1O [Compound 14, N-(3-hydroxy-4methoxybenzyl)benzo[d]thiazole-2-carboxamide]
2-NBDG MFI [1]: significant reduction | apoptosis-inducing activity [2]: late apoptotic and necrotic effects | LC3B expression and co-localization with MitoTracker Red (mitophagy) [3]: increase in LC3B expression
